Assays:
ABUTH [1] = assay: Pre-emergence herbicidal action against ABUTH; format: in vivo, Abutilon theophrasti
Outline: (§1)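 Herbicidal effect was assessed 3 weeks after treatment by visual comparison with untreated controls, 100% denoting dead plants. Aqueous WP or EC preparations had been applied at 600 to 800 l/ha with 0.2% wetting agent to the soil covering freshly sown seeds.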

ALOMY = assay: Pre-emergence herbicidal action against ALOMY; format: in vivo, Alopecurus myosuroides; details: pre-emergence
Outline: as §1

AMARE [2] = assay: Pre-emergence herbicidal action against AMARE; format: in vivo, Amaranthus retroflexus
Outline: as §1

AVEFA [3] = assay: Pre-emergence herbicidal action against AVEFA; format: in vivo, Avena fatua; details: 80 g/ha, pre-emergence
Outline: as §1

MATIN [4] = assay: Pre-emergence herbicidal action against MATIN; format: in vivo, Matricaria inodora
Outline: as §1

POLCO = assay: Pre-emergence herbicidal action against POLCO; format: in vivo, Polygonum convolvulus
Outline: as §1

SETVI = assay: Pre-emergence herbicidal action against SETVI; format: in vivo, Setaria viridis
Outline: as §1

STEME [5] = assay: Pre-emergence herbicidal action against STEME; format: in vivo, Stellaria media
Outline: as §1

VERPE [6] = assay: Pre-emergence herbicidal action against VERPE; format: in vivo, Veronica persica; details: dosage 80 g/ha
Outline: as §1

VIOTR [7] = assay: Pre-emergence herbicidal action against VIOTR; format: in vivo, Viola tricolor
Outline: as §1

DIGSA [8] = assay: Pre-emergence herbicidal action against DIGSA; format: in vivo, Digitaria sanguinalis
Outline: as §1

ABUTH [9] = assay: Post-emergence herbicidal action against ABUTH; format: in vivo, Abutilon theophrasti; details: visual assessment about 3 weeks after treatment vs untreated controls
Outline: (§2)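 Herbicidal effect was scored visually in percent after about 3 weeks in the greenhouse. Plants had been raised in sandy loam and treated post-emergence at the one-leaf stage with formulated compound at 600 to 800 l/ha water plus 0.2% wetting agent.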

AMARE [10] = assay: Post-emergence herbicidal action against AMARE; format: in vivo, Amaranthus retroflexus; details: 20 g/ha, visual assessment about 3 weeks after treatment, 100% = plants have died, 0% = like control plants
Outline: as §2

AVEFA [11] = assay: Post-emergence herbicidal action against AVEFA; format: in vivo, Avena fatua; details: 20 g/ha, visual assessment about 3 weeks after treatment, 100% = plants have died, 0% = like control plants
Outline: as §2

ECHCG [12] = assay: Post-emergence herbicidal action against ECHCG; format: in vivo, Echinochloa crus-galli; details: dosage 20 g/ha
Outline: as §2

MATIN [13] = assay: Post-emergence herbicidal action against MATIN; format: in vivo, Matricaria inodora
Outline: as §2

PHBPU = assay: Post-emergence herbicidal action against PHBPU; format: in vivo, Pharbitis purpurea
Outline: as §2

STEME [14] = assay: Post-emergence herbicidal action against STEME; format: in vivo, Stellaria media; details: 20 g/ha
Outline: as §2

VERPE [15] = assay: Post-emergence herbicidal action against VERPE; format: in vivo, Veronica persica; details: 20 g/ha
Outline: as §2

VIOTR [16] = assay: Post-emergence herbicidal action against VIOTR; format: in vivo, Viola tricolor; details: 20 g/ha
Outline: as §2

ECHCG [17] = assay: Pre-emergence herbicidal action against ECHCG; format: in vivo, Echinochloa crus-galli; details: 80 g/ha
Outline: as §1

LOLRI = assay: Pre-emergence herbicidal action against LOLRI; format: in vivo, Lolium rigidum; details: 80 g/ha
Source text: Seeds of monocotyledonous and dicotyledonous weed plants and crop plants are laid out in sandy loam soil in wood-fiber pots and covered with soil. The compounds of the invention, formulated in the form of wettable powders (WP) or as emulsion concentrates (EC), are then applied to the surface of the covering soil in the form of an aqueous suspension or emulsion at a water application rate equivalent to 600 to 800 l/ha, with addition of 0.2% wetting agent. After the treatment, the pots are placed in a greenhouse and kept under good growth conditions for the trial plants. The damage to the test plants is scored visually after a test period of 3 weeks by comparison with untreated controls (herbicidal activity in percent (%): 100% activity=the plants have died, 0% activity=like control plants). […] The tables below illustrate, in an illustrative manner, the post-emergence herbicidal action of the compounds of the invention, the herbicidal activity being stated in percent.

DIGSA [18] = assay: Post-emergence herbicidal action against DIGSA; format: in vivo, Digitaria sanguinalis; details: Digitaria sanguinalis, 504 h
Outline: as §2

[19] = 80 g/ha, scored visually after 3 weeks vs untreated controls (100% = plants have died, 0% = like control plants)
[20] = dosage 20 g/ha, scored visually after 3 weeks vs untreated controls, 100% = plants have died, 0% = like control plants
[21] = 20 g/ha, scored visually after 3 weeks vs untreated controls, 100% = plants have died, 0% = like control plants

**Q.** Which results are given for CCn1nnnc1NC(=O)c1ccc(C(F)F)c(C(=O)NC)c1C [Example 2-44]?
**A.** Pre-emergence action against ABUTH (herbicidal activity) (ABUTH [1]; [19]): 100%; Pre-emergence action against ABUTH (herbicidal activity in percent) (ABUTH [1]; [20]): 100%; Pre-emergence action against ALOMY (herbicidal activity) (ALOMY; [19]): 80%; Pre-emergence action against AMARE in % (AMARE [2]; [21]): 100%; Pre-emergence action against AMARE in % (AMARE [2]; [19]): 100%; Pre-emergence action against AVEFA in % (AVEFA [3]): 90%; Pre-emergence action against MATIN in % (MATIN [4]; dosage 20 g/ha): 90%; Pre-emergence action against MATIN in % (MATIN [4]; dosage 80 g/ha): 100%; Pre-emergence action against POLCO in % (POLCO; dosage 20 g/ha): 80%; Pre-emergence action against POLCO in % (POLCO; dosage 80 g/ha): 90%; Pre-emergence action against SETVI in % (SETVI; dosage 80 g/ha): 100%; Pre-emergence action against STEME in % (STEME [5]; dosage 20 g/ha): 90%; Pre-emergence action against STEME in % (STEME [5]; dosage 80 g/ha): 100%; Pre-emergence action against VERPE in % (VERPE [6]): 90%; Pre-emergence action against VIOTR in % (VIOTR [7]; dosage 20 g/ha): 100%; Pre-emergence action against VIOTR in % (VIOTR [7]; dosage 80 g/ha): 100%; Pre-emergence action against DIGSA in % (DIGSA [8]; dosage 20 g/ha): 100%; Pre-emergence action against DIGSA in % (DIGSA [8]; dosage 80 g/ha): 100%; Post-emergence action against ABUTH in % (ABUTH [9]; dosage 5 g/ha): 80%; Post-emergence action against ABUTH in % (ABUTH [9]; dosage 20 g/ha): 90%; Post-emergence action at 20 g/ha against AMARE in % (AMARE [10]): 100%; Post-emergence action at 20 g/ha against AVEFA in % (AVEFA [11]): 80%; Post-emergence action against ECHCG in % (ECHCG [12]): 80%; Post-emergence action against MATIN in % (MATIN [13]; dosage 5 g/ha): 80%; Post-emergence action against MATIN in % (MATIN [13]; dosage 20 g/ha): 80%; Post-emergence action against PHBPU in % (PHBPU; dosage 5 g/ha): 80%; Post-emergence action against PHBPU in % (PHBPU; dosage 20 g/ha): 80%; Post-emergence action against STEME in % (STEME [14]): 80%; Post-emergence action against VERPE in % (VERPE [15]): 80%; Post-emergence action against VIOTR in % (VIOTR [16]): 80%

**Q.** Which results are given for Cn1nnnc1NC(=O)c1ccc(C(F)F)c(C(=O)NCC2CCCO2)c1Cl (centres unmarked) [Example 1-159]?
**A.** Pre-emergence action against ABUTH (herbicidal activity) (ABUTH [1]; [19]): 100%; Pre-emergence action against ABUTH (herbicidal activity in percent) (ABUTH [1]; [20]): 80%; Pre-emergence action against AMARE in % (AMARE [2]; [21]): 100%; Pre-emergence action against AMARE in % (AMARE [2]; [19]): 100%; Pre-emergence action against ECHCG in % (ECHCG [17]): 90%; Pre-emergence action against LOLRI in % (LOLRI): 80%; Pre-emergence action against MATIN in % (MATIN [4]; dosage 80 g/ha): 90%; Pre-emergence action against VERPE in % (VERPE [6]): 80%; Post-emergence action against ABUTH in % (ABUTH [9]; dosage 20 g/ha): 80%; Post-emergence action at 20 g/ha against AMARE in % (AMARE [10]): 100%; Post-emergence action against ECHCG in % (ECHCG [12]): 90%; Post-emergence action against PHBPU in % (PHBPU; dosage 5 g/ha): 80%; Post-emergence action against PHBPU in % (PHBPU; dosage 20 g/ha): 80%

**Q.** Which pest or weed control at 80 g/ha (ABUTH [1]; Abutilon theophrasti, 504 h, 80 g/ha, scored visually after 3 weeks vs untreated controls (100% = plants have died, 0% = like control plants)) does the source give for Cn1nnnc1NC(=O)c1ccc(I)c(C(=O)NC2CC2)c1Cl [Example 1-197] here?
**A.** Its pest or weed control at 80 g/ha is 100%.

**Q.** And the pest or weed control at 20 g/ha (ABUTH [1]; Abutilon theophrasti, 504 h, dosage 20 g/ha, scored visually after 3 weeks vs untreated controls, 100% = plants have died, 0% = like control plants, read-out: Pre-emergence action against ABUTH (herbicidal activity in percent))?
**A.** The pest or weed control at 20 g/ha was 100%.

**Q.** And the pest or weed control at 80 g/ha (ALOMY; Alopecurus myosuroides, 504 h, 80 g/ha, scored visually after 3 weeks vs untreated controls (100% = plants have died, 0% = like control plants))?
**A.** Its pest or weed control at 80 g/ha is 100%.

**Q.** What about the pest or weed control at 20 g/ha (ALOMY; Alopecurus myosuroides, 504 h, 20 g/ha, scored visually after 3 weeks, 100% = plants have died, 0% = like control plants) of the same compound?
**A.** Its pest or weed control at 20 g/ha is 100%.

**Q.** And the pest or weed control at 20 g/ha (AMARE [2]; Amaranthus retroflexus, 504 h, 20 g/ha, scored visually after 3 weeks vs untreated controls, 100% = plants have died, 0% = like control plants)?
**A.** Its pest or weed control at 20 g/ha is 100%.

**Q.** What about the pest or weed control at 80 g/ha (AMARE [2]; Amaranthus retroflexus, 504 h, 80 g/ha, scored visually after 3 weeks vs untreated controls, 100% = plants have died, 0% = like control plants) of the same compound?
**A.** Its pest or weed control at 80 g/ha is 100%.

**Q.** And the pest or weed control at 80 g/ha (AVEFA [3]; Avena fatua, 504 h)?
**A.** Its pest or weed control at 80 g/ha is 100%.

**Q.** And the pest or weed control at 80 g/ha (ECHCG [17]; Echinochloa crus-galli, 504 h)?
**A.** The pest or weed control at 80 g/ha was 90%.

**Q.** What about the pest or weed control at 80 g/ha (LOLRI; Lolium rigidum, 504 h) of the same compound?
**A.** The pest or weed control at 80 g/ha was 80%.

**Q.** And the pest or weed control at 20 g/ha (MATIN [4]; Tripleurospermum inodorum, 504 h, dosage 20 g/ha)?
**A.** The pest or weed control at 20 g/ha was 90%.

**Q.** And the pest or weed control at 80 g/ha (MATIN [4]; Tripleurospermum inodorum, 504 h, dosage 80 g/ha)?
**A.** Its pest or weed control at 80 g/ha is 100%.

**Q.** And the pest or weed control at 20 g/ha (SETVI; Setaria viridis, 504 h, dosage 20 g/ha)?
**A.** Its pest or weed control at 20 g/ha is 100%.

**Q.** What about the pest or weed control at 80 g/ha (SETVI; Setaria viridis, 504 h, dosage 80 g/ha) of the same compound?
**A.** The pest or weed control at 80 g/ha was 100%.

**Q.** And the pest or weed control at 20 g/ha (VIOTR [7]; Viola tricolor, 504 h, dosage 20 g/ha)?
**A.** Its pest or weed control at 20 g/ha is 100%.

**Q.** What about the pest or weed control at 80 g/ha (VIOTR [7]; Viola tricolor, 504 h, dosage 80 g/ha) of the same compound?
**A.** The pest or weed control at 80 g/ha was 100%.

**Q.** What about the pest or weed control at 20 g/ha (DIGSA [8]; Digitaria sanguinalis, 504 h, dosage 20 g/ha) of the same compound?
**A.** The pest or weed control at 20 g/ha was 100%.

**Q.** What about the pest or weed control at 80 g/ha (DIGSA [8]; Digitaria sanguinalis, 504 h, dosage 80 g/ha) of the same compound?
**A.** The pest or weed control at 80 g/ha was 100%.

**Q.** And the pest or weed control at 20 g/ha (ABUTH [9]; Abutilon theophrasti, 504 h, dosage 20 g/ha)?
**A.** Its pest or weed control at 20 g/ha is 100%.

**Q.** And the pest or weed control at 20 g/ha (AMARE [10]; Amaranthus retroflexus, 504 h)?
**A.** Its pest or weed control at 20 g/ha is 100%.

**Q.** What about the pest or weed control at 20 g/ha (ECHCG [12]; Echinochloa crus-galli, 504 h) of the same compound?
**A.** The pest or weed control at 20 g/ha was 90%.

**Q.** And the pest or weed control at 20 g/ha (PHBPU; Ipomoea purpurea, 504 h, dosage 20 g/ha)?
**A.** The pest or weed control at 20 g/ha was 90%.

**Q.** And the pest or weed control at 20 g/ha (VERPE [15]; Veronica persica, 504 h)?
**A.** Its pest or weed control at 20 g/ha is 80%.

**Q.** What about the pest or weed control at 20 g/ha (VIOTR [16]; Viola tricolor, 504 h) of the same compound?
**A.** The pest or weed control at 20 g/ha was 100%.

**Q.** What about the pest or weed control at 5 g/ha (DIGSA [18]; 5 g/ha) of the same compound?
**A.** The pest or weed control at 5 g/ha was 100%.

**Q.** What about the pest or weed control at 20 g/ha (DIGSA [18]; 20 g/ha) of the same compound?
**A.** Its pest or weed control at 20 g/ha is 100%.
